Molecules are shown by their SMILES.

In one assay the target is T1, MMP-13 (Homo sapiens, UniProt P45452).
T1 construct: made in house; host or cells: baculovirus / insect cells
Description: In vitro MMP inhibition, Ki determination (fluorogenic substrate II). The format is biochemical. The note with it: value outside parentheses; read-out: MMP-13 Ki. In a few lines: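 Ki determined with human recombinant MMP-13, baculovirus-expressed as proenzyme and activated with APMA. Fluorogenic MCA/Dpa substrate II at 4 μM (at or below Km) with low enzyme in Tris buffer pH 7.5 with CaCl2. Incubation was 1 h at room temperature, with fluorescence read at 330/420 nm.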

The target of the next assay is T2, MMP-14 (Homo sapiens, UniProt P50281).
T2 construct: The catalytic domain enzyme was expressed in E. coli inclusion bodies, solubilized in urea; made in house
Described as above. In kind it is biochemical. To be noted: value outside parentheses; read-out: MMP-14 Ki. An outline of the steps:
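E. coli-expressed, refolded MMP-14 catalytic domain, activated with APMA or trypsin, in 100 mM Tris-HCl pH 7.5, 100 mM NaCl, 10 mM CaCl2, 0.05% Brij-type detergent. Apparent Ki by Morrison-equation regression of velocity vs inhibitor and enzyme concentration.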

Regarding `CCCCOc1ccc(N2CCN(S(=O)(=O)C3(C(=O)NO)CCN(Cc4ccccc4)CC3)CC2)cc1F` [Example 285], the inhibition constant (Ki) on MMP-13 was 2.06 nM; at MMP-14, over 10000 nM.
Regarding `CCCCOc1ccc(N2CCN(S(=O)(=O)C3(C(=O)NO)CCNCC3)CC2)cc1F` [Example 286], the Ki at MMP-13 was 5.97 nM; at MMP-14, over 10000 nM.
For the molecule `COCCN1CCC(C(=O)NO)(S(=O)(=O)N2CCN(c3ccc(Oc4ccccc4)cc3)CC2)CC1` [Example 287], the Ki on MMP-13 amounted to 3.33 nM; at MMP-14, 6940 nM.
As for `CCCCOc1ccc(N2CCN(S(=O)(=O)C3(C(=O)NO)CCN(C(=O)CN)CC3)CC2)cc1` [Example 292], the Ki on MMP-13 was 0.98 nM; at MMP-14 it was 6540 nM.
For `CCCCOc1ccc(N2CCN(S(=O)(=O)C3(C(=O)NO)CCN(Cc4cccnc4)CC3)CC2)cc1F` [Example 293], the results for the Ki at MMP-13 and at MMP-14 were 0.313 nM and 5440 nM, respectively.
On the same counts, the results for `CCCCOc1ccc(N2CCN(S(=O)(=O)C3(C(=O)NO)CCN(c4ccc(C)cc4)CC3)CC2)cc1` [Example 295] are 9.13 nM and 8650 nM.
On the same counts, the results for `CCCCOc1ccc(N2CCN(S(=O)(=O)C3(C(=O)NO)CCN(CC4CC4)CC3)CC2)cc1` [Example 298] are 0.702 nM and over 10000 nM.
In the same order, the values of `Cc1cc(N2CCN(S(=O)(=O)C3(C(=O)NO)CCOCC3)CC2)ccc1OC(C)C` [Example 299] are 3.04 nM and over 10000 nM.
Turning to `CS(=O)(=O)c1ccc(N2CCN(S(=O)(=O)C3(C(=O)NO)CCOCC3)CC2)cc1` [Example 300], the figures for the Ki on MMP-13 and on MMP-14 were 42.7 nM and over 10000 nM, respectively.
Take `C#CCN1CCC(C(=O)NO)(S(=O)(=O)N2CCN(c3ccc(OCCCC)cc3)CC2)CC1` [Example 303]: the Ki at MMP-13 was found to be 0.46 nM; on MMP-14, 5000 nM.
As to `CCCCCc1ccc(C2CCN(S(=O)(=O)C3(C(=O)NO)CCOCC3)CC2)nc1` [Example 305], the values for the Ki on MMP-13 and at MMP-14 were 0.136 nM and 645 nM, respectively.
On to `O=C(NO)C1(S(=O)(=O)N2CCC(c3ccc(Br)cn3)CC2)CCOCC1` [Example 306], for which the inhibition constant Ki on MMP-13 is 0.863 nM; at MMP-14, 31.7 nM.
With `CCCCc1ccc(C2CCN(S(=O)(=O)C3(C(=O)NO)CCOCC3)CC2)nc1` [Example 307], the Ki on MMP-13 worked out at 0.654 nM; at MMP-14 it was 1290 nM.
On the same counts, the results for `O=C(NO)C1(S(=O)(=O)N2CCC(c3ccc(-c4ccc(F)cc4F)cn3)CC2)CCOCC1` [Example 308] are 4.26 nM and 1040 nM.
Take `COCCN1CCC(C(=O)NO)(S(=O)(=O)N2CCC(c3ccc(CCC(F)(F)F)cc3)CC2)CC1` [Example 309]: the Ki amounted to 0.355 nM at MMP-13 and 1440 nM at MMP-14.
Regarding `COCCN1CCC(C(=O)NO)(S(=O)(=O)N2CCC(c3ccc(CCCC(F)(F)F)cc3)CC2)CC1` [Example 310], the Ki on MMP-13 was 0.268 nM; at MMP-14, 4820 nM.
In the same order, the values of `COCCN1CCC(C(=O)NO)(S(=O)(=O)N2CCC(c3ncc(CC(C)C)s3)CC2)CC1` [Example 311] are 1.56 nM and over 10000 nM.
Take `COCCN1CCC(C(=O)NO)(S(=O)(=O)N2CCC(c3ccc(CCC(F)(F)C(F)(F)F)cc3)CC2)CC1` [Example 312]: the Ki at MMP-13 is 0.2 nM; at MMP-14, 2040 nM.

For orientation: Ki means a measure of affinity in units of concentration, obtained from inhibition or displacement.
